How the values were obtained:
Format in all cases: functional
LOX IMVI = test: Growth inhibition of human LOXIMVI cells assessed as cell growth at 5X10'-5 M after 48 hrs by sulforhodamine B assay; conditions: read-out: Activity
NCI-H322M [1] = test: Growth inhibition of human NCI-H322M cells assessed as cell growth at 5X10'-5 M after 48 hrs by sulforhodamine B assay; conditions: read-out: Activity
NCI-H226 [2] = test: Growth inhibition of human NCI-H226 cells assessed as cell growth at 5X10'-5 M after 48 hrs by sulforhodamine B assay; conditions: NCI-H226, 48 h, read-out: Activity
HOP-92 = test: Growth inhibition of human HOP92 cells assessed as cell growth at 5X10'-5 M after 48 hrs by sulforhodamine B assay; conditions: HOP-92, 48 h, read-out: Activity
SR [3] = test: Growth inhibition of human SR cells assessed as cell growth at 5X10'-5 M after 48 hrs by sulforhodamine B assay; conditions: read-out: Activity
CCRF-CEM = test: Growth inhibition of human CCRF-CEM cells assessed as cell growth at 5X10'-5 M after 48 hrs by sulforhodamine B assay; conditions: read-out: Activity
U-251 = test: Growth inhibition of human U251 cells assessed as cell growth at 5X10'-6 M after 48 hrs by sulforhodamine B assay; conditions: U-251, 48 h, read-out: Activity
COLO 205 = test: Growth inhibition of human COLO205 cells assessed as cell growth at 5X10'-9 M after 48 hrs by sulforhodamine B assay; conditions: COLO 205, 48 h, read-out: Activity
A549 [4] = test: Growth inhibition of human A549/ATCC cells assessed as cell growth at 5X10'-9 M after 48 hrs by sulforhodamine B assay; conditions: A549, 48 h, read-out: Activity
K562 [5] = test: Growth inhibition of human K562 cells assessed as cell growth at 5X10'-9 M after 48 hrs by sulforhodamine B assay; conditions: K562, 48 h, read-out: Activity
SW-620 [6] = test: Growth inhibition of human SW620 cells assessed as cell growth at 5X10'-6 M after 48 hrs by sulforhodamine B assay; conditions: SW-620, 48 h, read-out: Activity
KM12 = test: Growth inhibition of human KM12 cells assessed as cell growth at 5X10'-6 M after 48 hrs by sulforhodamine B assay; conditions: KM12, 48 h, read-out: Activity
NCI-H322M [7] = test: Growth inhibition of human NCI-H322M cells assessed as cell growth at 5X10'-6 M after 48 hrs by sulforhodamine B assay; conditions: read-out: Activity
NCI-H226 [8] = test: Growth inhibition of human NCI-H226 cells assessed as cell growth at 5X10'-6 M after 48 hrs by sulforhodamine B assay; conditions: NCI-H226, 48 h, read-out: Activity
A549 [9] = test: Growth inhibition of human A549/ATCC cells assessed as cell growth at 5X10'-6 M after 48 hrs by sulforhodamine B assay; conditions: A549, 48 h, read-out: Activity
BT-549 = test: Growth inhibition of human BT549 cells assessed as cell growth at 5X10'-7 M after 48 hrs by sulforhodamine B assay; conditions: BT-549, 48 h, read-out: Activity
DU-145 = test: Growth inhibition of human DU145 cells assessed as cell growth at 5X10'-7 M after 48 hrs by sulforhodamine B assay; conditions: DU-145, 48 h, read-out: Activity
UO-31 = test: Growth inhibition of human UO31 cells assessed as cell growth at 5X10'-7 M after 48 hrs by sulforhodamine B assay; conditions: UO-31, 48 h, read-out: Activity
TK-10 [10] = test: Growth inhibition of human TK10 cells assessed as cell growth at 5X10'-7 M after 48 hrs by sulforhodamine B assay; conditions: TK-10, 48 h, read-out: Activity
786-0 = test: Growth inhibition of human 786-0 cells assessed as cell growth at 5X10'-7 M after 48 hrs by sulforhodamine B assay; conditions: 786-0, 48 h, read-out: Activity
OVCAR-5 = test: Growth inhibition of human OVCAR5 cells assessed as cell growth at 5X10'-7 M after 48 hrs by sulforhodamine B assay; conditions: OVCAR-5, 48 h, read-out: Activity
UACC-257 = test: Growth inhibition of human UACC257 cells assessed as cell growth at 5X10'-7 M after 48 hrs by sulforhodamine B assay; conditions: UACC-257, 48 h, read-out: Activity
SF-295 = test: Growth inhibition of human SF295 cells assessed as cell growth at 5X10'-7 M after 48 hrs by sulforhodamine B assay; conditions: SF-295, 48 h, read-out: Activity
SR [11] = test: Growth inhibition of human SR cells assessed as cell growth at 5X10'-7 M after 48 hrs by sulforhodamine B assay; conditions: read-out: Activity
HL-60(TB) = test: Growth inhibition of human HL-60(TB) cells assessed as cell growth at 5X10'-7 M after 48 hrs by sulforhodamine B assay; conditions: HL-60, 48 h, read-out: Activity
MCF7 [12] = test: Growth inhibition of human MCF7 cells assessed as cell growth at 5X10'-8 M after 48 hrs by sulforhodamine B assay; conditions: MCF7, 48 h, read-out: Activity
TK-10 [13] = test: Growth inhibition of human TK10 cells assessed as cell growth at 5X10'-8 M after 48 hrs by sulforhodamine B assay; conditions: TK-10, 48 h, read-out: Activity
UACC-62 = test: Growth inhibition of human UACC62 cells assessed as cell growth at 5X10'-8 M after 48 hrs by sulforhodamine B assay; conditions: UACC-62, 48 h, read-out: Activity
MDA-MB-468 = test: Growth inhibition of human MDA-MB-468 cells assessed as cell growth at 5X10'-5 M after 48 hrs by sulforhodamine B assay; conditions: MDA-MB-468, 48 h, read-out: Activity
MCF7 [14] = test: Growth inhibition of human MCF7 cells assessed as cell growth at 5X10'-5 M after 48 hrs by sulforhodamine B assay; conditions: MCF7, 48 h, read-out: Activity
SN12C = test: Growth inhibition of human SN12C cells assessed as cell growth at 5X10'-5 M after 48 hrs by sulforhodamine B assay; conditions: read-out: Activity
RXF 393 = test: Growth inhibition of human RXF393 cells assessed as cell growth at 5X10'-5 M after 48 hrs by sulforhodamine B assay; conditions: RXF 393, 48 h, read-out: Activity
[15] = Growth inhibition of human HCC2998 cells assessed as cell growth at 5X10'-8 M after 48 hrs by sulforhodamine B assay; conditions: HCC 2998, 48 h, read-out: Activity
NCI-H322M [16] = test: Growth inhibition of human NCI-H322M cells assessed as cell growth at 5X10'-8 M after 48 hrs by sulforhodamine B assay; conditions: read-out: Activity
K562 [17] = test: Growth inhibition of human K562 cells assessed as cell growth at 5X10'-8 M after 48 hrs by sulforhodamine B assay; conditions: K562, 48 h, read-out: Activity
OVCAR-3 = test: Growth inhibition of human OVCAR3 cells assessed as cell growth at 5X10'-9 M after 48 hrs by sulforhodamine B assay; conditions: OVCAR-3, 48 h, read-out: Activity
SW-620 [18] = test: Growth inhibition of human SW620 cells assessed as cell growth at 5X10'-9 M after 48 hrs by sulforhodamine B assay; conditions: SW-620, 48 h, read-out: Activity

SMILES | growth at 50 µM (LOX IMVI) [%] | growth at 50 µM (NCI-H322M [1]) [%] | growth at 50 µM (NCI-H226 [2]) [%] | growth at 50 µM (HOP-92) [%] | growth at 50 µM (SR [3]) [%] | growth at 50 µM (CCRF-CEM) [%] | growth at 5 µM (U-251) [%] | growth at 0.005 µM (COLO 205) [%] | growth at 0.005 µM (A549 [4]) [%] | growth at 0.005 µM (K562 [5]) [%] | growth at 5 µM (SW-620 [6]) [%] | growth at 5 µM (KM12) [%] | growth at 5 µM (NCI-H322M [7]) [%] | growth at 5 µM (NCI-H226 [8]) [%] | growth at 5 µM (A549 [9]) [%] | growth at 0.5 µM (BT-549) [%] | growth at 0.5 µM (DU-145) [%] | growth at 0.5 µM (UO-31) [%] | growth at 0.5 µM (TK-10 [10]) [%] | growth at 0.5 µM (786-0) [%] | other results
O=C(Nc1cccc(-n2cc(-c3ccncc3)c(-c3ccc(Cl)c(O)c3)n2)c1)c1ccc(N2CCOCC2)c(C(F)(F)F)c1 | -53 | 56 | 58 | -15 | 8 | 14 | 16 | 98 | 102 | 96 | 2 | 25 | 76 | 100 | 39 | 111 | 96 | 112 | 97 | 95 | growth at 0.5 µM (OVCAR-5): 98%; growth at 0.5 µM (UACC-257): 90%; growth at 0.5 µM (SF-295): 93%; growth at 0.5 µM (SR [11]): 84%; growth at 0.5 µM (HL-60(TB)): 130%; growth at 0.05 µM (MCF7 [12]): 85%; growth at 0.05 µM (TK-10 [13]): 92%; growth at 0.05 µM (UACC-62): 100%; growth at 50 µM (MDA-MB-468): -24%; growth at 50 µM (MCF7 [14]): 12%; growth at 50 µM (SN12C): 39%; growth at 50 µM (RXF 393): -37%; growth at 0.05 µM [15]: 99%; growth at 0.05 µM (NCI-H322M [16]): 104%; growth at 0.05 µM (K562 [17]): 100%; growth at 0.005 µM (OVCAR-3): 98%; growth at 0.005 µM (SW-620 [18]): 102%
O=C(Nc1cccc(-n2cc(-c3ccncc3)c(-c3ccc(Cl)c(O)c3)n2)c1)Nc1cc(C(F)(F)F)cc(C(F)(F)F)c1 | -95 | -75 | -58 | -89 | -8 | -18 | -83 | 105 | 96 | 105 | 1 | -60 | 3 | 6 | -33 | 109 | 80 | 62 | 75 | 93 | growth at 0.5 µM (OVCAR-5): 83%; growth at 0.5 µM (UACC-257): 84%; growth at 0.5 µM (SF-295): 61%; growth at 0.5 µM (SR [11]): 72%; growth at 0.5 µM (HL-60(TB)): 93%; growth at 0.05 µM (MCF7 [12]): 85%; growth at 0.05 µM (TK-10 [13]): 107%; growth at 0.05 µM (UACC-62): 92%; growth at 50 µM (MDA-MB-468): -55%; growth at 50 µM (MCF7 [14]): -64%; growth at 50 µM (SN12C): -48%; growth at 50 µM (RXF 393): -79%; growth at 0.05 µM [15]: 105%; growth at 0.05 µM (NCI-H322M [16]): 104%; growth at 0.05 µM (K562 [17]): 108%; growth at 0.005 µM (OVCAR-3): 109%; growth at 0.005 µM (SW-620 [18]): 99%
COc1cc(-c2nn(-c3cccc(NC(=O)Nc4cccc(C(F)(F)F)c4)c3)cc2-c2ccncc2)ccc1Cl | -86 | -14 | 7 | -45 | -16 | 3 | -86 | 98 | 97 | 99 | 5 | -37 | -2 | 7 | 3 | 91 | 90 | 61 | 79 | 91 | growth at 0.5 µM (OVCAR-5): 80%; growth at 0.5 µM (UACC-257): 83%; growth at 0.5 µM (SF-295): 39%; growth at 0.5 µM (SR [11]): 75%; growth at 0.5 µM (HL-60(TB)): 85%; growth at 0.05 µM (MCF7 [12]): 93%; growth at 0.05 µM (TK-10 [13]): 93%; growth at 0.05 µM (UACC-62): 94%; growth at 50 µM (MDA-MB-468): -44%; growth at 50 µM (MCF7 [14]): -8%; growth at 50 µM (SN12C): -7%; growth at 50 µM (RXF 393): -53%; growth at 0.05 µM [15]: 98%; growth at 0.05 µM (NCI-H322M [16]): 92%; growth at 0.05 µM (K562 [17]): 95%; growth at 0.005 µM (OVCAR-3): 108%; growth at 0.005 µM (SW-620 [18]): 98%

Source: ChEMBL document CHEMBL2440076, “New triarylpyrazoles as broad-spectrum anticancer agents: design, synthesis, and biological evaluation” (Eur J Med Chem, 2013)
